# Test results: PubChem BioAssay AID1918993 (Molecular Pharmacology Branch, DTP, NCI, 2023)
# Test system: 233499-124-R-J3-PDC complex spheroid growth
# Assay: Anticancer human tumor 233499-124-R-J3-PDC patient-derived colon adenocarcinoma cell line growth inhibition [AhR]
# Settings: for IC50: curve of first compound; for viability, T/C: stronger effect = lower value
# Summary of the method: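 Complex tumor spheroids co-cultured with HUVEC and human MSC stroma; AhR antagonists tested in combination with standard-of-care and investigational agents. Top concentration at or near clinical Cmax (else 10 microM), half-log dilutions; growth expressed as percent test/control.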
# [1] = second compound 0.1 µM, first compound 0.0316 µM
# [2] = second compound 0.1 µM, first compound 0.1 µM
# [3] = second compound 0.1 µM, first compound 0.316 µM
# [4] = second compound 0.1 µM, first compound 1 µM
# [5] = second compound 0.316 µM, first compound 0.0316 µM
# [6] = second compound 0.316 µM, first compound 0.1 µM
# [7] = second compound 0.316 µM, first compound 0.316 µM
# [8] = second compound 0.316 µM, first compound 1 µM
# [9] = second compound 1 µM, first compound 0.0316 µM
# [10] = second compound 1 µM, first compound 0.1 µM
# [11] = second compound 1 µM, first compound 0.316 µM
# [12] = second compound 1 µM, first compound 1 µM
# [13] = second compound 3.16 µM, first compound 0.0316 µM
# [14] = second compound 3.16 µM, first compound 0.1 µM
# [15] = second compound 3.16 µM, first compound 0.316 µM
# [16] = second compound 3.16 µM, first compound 1 µM
# [17] = second compound 10 µM, first compound 0.0316 µM
# [18] = second compound 10 µM, first compound 0.1 µM
# [19] = second compound 10 µM, first compound 0.316 µM
# [20] = second compound 10 µM, first compound 1 µM
# [21] = second compound 0.1 µM, first compound 0.00949 µM
# [22] = second compound 0.1 µM, first compound 0.03 µM
# [23] = second compound 0.1 µM, first compound 0.0949 µM
# [24] = second compound 0.1 µM, first compound 0.3 µM
# [25] = second compound 0.1 µM, first compound 0.949 µM
# [26] = second compound 0.1 µM, first compound 3 µM
# [27] = second compound 0.316 µM, first compound 0.00949 µM
# [28] = second compound 0.316 µM, first compound 0.03 µM
# [29] = second compound 0.316 µM, first compound 0.0949 µM
# [30] = second compound 0.316 µM, first compound 0.3 µM
# [31] = second compound 0.316 µM, first compound 0.949 µM
# [32] = second compound 0.316 µM, first compound 3 µM
# [33] = second compound 1 µM, first compound 0.00949 µM
# [34] = second compound 1 µM, first compound 0.03 µM
# [35] = second compound 1 µM, first compound 0.0949 µM
# [36] = second compound 1 µM, first compound 0.3 µM
# [37] = second compound 1 µM, first compound 0.949 µM
# [38] = second compound 1 µM, first compound 3 µM
# [39] = second compound 3.16 µM, first compound 0.00949 µM
# [40] = second compound 3.16 µM, first compound 0.03 µM
# [41] = second compound 3.16 µM, first compound 0.0949 µM
# [42] = second compound 3.16 µM, first compound 0.3 µM
# [43] = second compound 3.16 µM, first compound 0.949 µM
# [44] = second compound 3.16 µM, first compound 3 µM
# [45] = second compound 10 µM, first compound 0.00949 µM
# [46] = second compound 10 µM, first compound 0.03 µM
# [47] = second compound 10 µM, first compound 0.0949 µM
# [48] = second compound 10 µM, first compound 0.3 µM
# [49] = second compound 10 µM, first compound 0.949 µM
# [50] = second compound 10 µM, first compound 3 µM
# 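Also: spheroids exposed to agents for seven days before reading.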
structure (smiles),measurement,setting,value
CC1COCCN1c1cc(-c2ccnn2C)c2ccnc(-c3ccn[nH]3)c2n1 (stereo not given) + CC(CO)NC(=O)c1cc(-c2ccc(Cl)cc2)nn(-c2cnn(C)c2)c1=O,IC50,second compound 0.1 µM,0.516 µM
same,IC50,second compound 0.316 µM,0.609 µM
same,IC50,second compound 1 µM,0.547 µM
same,IC50,second compound 3.16 µM,0.65 µM
same,IC50,second compound 10 µM,0.23 µM
same,"viability, T/C","second compound 0.1 µM, first compound 0.00316 µM",97.6%
same,"viability, T/C","second compound 0.1 µM, first compound 0.01 µM",95.3%
same,"viability, T/C",[1],89.1%
same,"viability, T/C",[2],83.9%
same,"viability, T/C",[3],63%
same,"viability, T/C",[4],31.7%
same,"viability, T/C","second compound 0.316 µM, first compound 0.00316 µM",90.3%
same,"viability, T/C","second compound 0.316 µM, first compound 0.01 µM",102%
same,"viability, T/C",[5],90.3%
same,"viability, T/C",[6],84.9%
same,"viability, T/C",[7],68.1%
same,"viability, T/C",[8],36.5%
same,"viability, T/C","second compound 1 µM, first compound 0.00316 µM",106%
same,"viability, T/C","second compound 1 µM, first compound 0.01 µM",101%
same,"viability, T/C",[9],97.9%
same,"viability, T/C",[10],82.5%
same,"viability, T/C",[11],60.8%
same,"viability, T/C",[12],38.2%
same,"viability, T/C","second compound 3.16 µM, first compound 0.00316 µM",81.9%
same,"viability, T/C","second compound 3.16 µM, first compound 0.01 µM",86.9%
same,"viability, T/C",[13],87.2%
same,"viability, T/C",[14],85.6%
same,"viability, T/C",[15],60.8%
same,"viability, T/C",[16],43.6%
same,"viability, T/C","second compound 10 µM, first compound 0.00316 µM",83.3%
same,"viability, T/C","second compound 10 µM, first compound 0.01 µM",90%
same,"viability, T/C",[17],80.8%
same,"viability, T/C",[18],59%
same,"viability, T/C",[19],49%
same,"viability, T/C",[20],33.4%
CC1COCCN1c1cc(C2(S(C)(=N)=O)CC2)nc(-c2ccnc3[nH]ccc23)n1 (stereo not given) + CC(CO)NC(=O)c1cc(-c2ccc(Cl)cc2)nn(-c2cnn(C)c2)c1=O,IC50,second compound 0.1 µM,> 10 µM
same,IC50,second compound 0.316 µM,> 10 µM
same,IC50,second compound 1 µM,> 10 µM
same,IC50,second compound 3.16 µM,> 10 µM
same,IC50,second compound 10 µM,> 10 µM
same,"viability, T/C",[1],101%
same,"viability, T/C",[2],97.2%
same,"viability, T/C",[3],94.2%
same,"viability, T/C",[4],91%
same,"viability, T/C","second compound 0.1 µM, first compound 3.16 µM",75.8%
same,"viability, T/C","second compound 0.1 µM, first compound 10 µM",74.1%
same,"viability, T/C",[5],88.2%
same,"viability, T/C",[6],89.1%
same,"viability, T/C",[7],97.3%
same,"viability, T/C",[8],83%
same,"viability, T/C","second compound 0.316 µM, first compound 3.16 µM",87.4%
same,"viability, T/C","second compound 0.316 µM, first compound 10 µM",72.1%
same,"viability, T/C",[9],79.7%
same,"viability, T/C",[10],96.2%
same,"viability, T/C",[11],90.3%
same,"viability, T/C",[12],92.3%
same,"viability, T/C","second compound 1 µM, first compound 3.16 µM",86.9%
same,"viability, T/C","second compound 1 µM, first compound 10 µM",69%
same,"viability, T/C",[13],98.8%
same,"viability, T/C",[14],95.8%
same,"viability, T/C",[15],91.3%
same,"viability, T/C",[16],85.9%
same,"viability, T/C","second compound 3.16 µM, first compound 3.16 µM",82.5%
same,"viability, T/C","second compound 3.16 µM, first compound 10 µM",68.3%
same,"viability, T/C",[17],72.5%
same,"viability, T/C",[18],79%
same,"viability, T/C",[19],82.2%
same,"viability, T/C",[20],79.5%
same,"viability, T/C","second compound 10 µM, first compound 3.16 µM",61.8%
same,"viability, T/C","second compound 10 µM, first compound 10 µM",56.6%
CCN(c1cc(-c2ccc(CN3CCOCC3)cc2)cc(C(=O)NCc2c(C)cc(C)[nH]c2=O)c1C)C1CCOCC1 + CC(CO)NC(=O)c1cc(-c2ccc(Cl)cc2)nn(-c2cnn(C)c2)c1=O,IC50,second compound 0.1 µM,> 3 µM
same,IC50,second compound 0.316 µM,> 3 µM
same,IC50,second compound 1 µM,> 3 µM
same,IC50,second compound 3.16 µM,> 3 µM
same,IC50,second compound 10 µM,> 3 µM
same,"viability, T/C",[21],100%
same,"viability, T/C",[22],86.8%
same,"viability, T/C",[23],88.2%
same,"viability, T/C",[24],82.9%
same,"viability, T/C",[25],93.5%
same,"viability, T/C",[26],94.3%
same,"viability, T/C",[27],103%
same,"viability, T/C",[28],98.6%
same,"viability, T/C",[29],94.9%
same,"viability, T/C",[30],85.6%
same,"viability, T/C",[31],99.9%
same,"viability, T/C",[32],83.8%
same,"viability, T/C",[33],95.6%
same,"viability, T/C",[34],96.1%
same,"viability, T/C",[35],91%
same,"viability, T/C",[36],95.4%
same,"viability, T/C",[37],88.4%
same,"viability, T/C",[38],90.2%
same,"viability, T/C",[39],88%
same,"viability, T/C",[40],82%
same,"viability, T/C",[41],85.6%
same,"viability, T/C",[42],91.9%
same,"viability, T/C",[43],98.7%
same,"viability, T/C",[44],86.6%
same,"viability, T/C",[45],80.9%
same,"viability, T/C",[46],77.2%
same,"viability, T/C",[47],79.7%
same,"viability, T/C",[48],82.5%
same,"viability, T/C",[49],73.5%
same,"viability, T/C",[50],83.1%
Nc1ncn(C2CC(O)C(CO)S2)c(=O)n1 (stereo not given) + CC(CO)NC(=O)c1cc(-c2ccc(Cl)cc2)nn(-c2cnn(C)c2)c1=O,IC50,second compound 0.1 µM,> 0.3 µM
same,IC50,second compound 0.316 µM,> 0.3 µM
same,IC50,second compound 1 µM,> 0.3 µM
same,IC50,second compound 3.16 µM,> 0.3 µM
same,IC50,second compound 10 µM,> 0.3 µM
same,"viability, T/C","second compound 0.1 µM, first compound 0.000949 µM",106%
same,"viability, T/C","second compound 0.1 µM, first compound 0.003 µM",109%
same,"viability, T/C",[21],92.5%
same,"viability, T/C",[22],109%
same,"viability, T/C",[23],104%
same,"viability, T/C",[24],86.3%
same,"viability, T/C","second compound 0.316 µM, first compound 0.000949 µM",99.5%
same,"viability, T/C","second compound 0.316 µM, first compound 0.003 µM",95.5%
same,"viability, T/C",[27],105%
same,"viability, T/C",[28],97%
same,"viability, T/C",[29],104%
same,"viability, T/C",[30],95%
same,"viability, T/C","second compound 1 µM, first compound 0.000949 µM",98.2%
same,"viability, T/C","second compound 1 µM, first compound 0.003 µM",105%
same,"viability, T/C",[33],113%
same,"viability, T/C",[34],100%
same,"viability, T/C",[35],106%
same,"viability, T/C",[36],96.9%
same,"viability, T/C","second compound 3.16 µM, first compound 0.000949 µM",103%
same,"viability, T/C","second compound 3.16 µM, first compound 0.003 µM",100%
same,"viability, T/C",[39],103%
same,"viability, T/C",[40],112%
same,"viability, T/C",[41],89.5%
same,"viability, T/C",[42],90.5%
same,"viability, T/C","second compound 10 µM, first compound 0.000949 µM",86.8%
same,"viability, T/C","second compound 10 µM, first compound 0.003 µM",84.1%
same,"viability, T/C",[45],101%
same,"viability, T/C",[46],100%
same,"viability, T/C",[47],102%
same,"viability, T/C",[48],87.6%
O=C(C=Cn1cnc(-c2cc(C(F)(F)F)cc(C(F)(F)F)c2)n1)NNc1cnccn1 + CC(CO)NC(=O)c1cc(-c2ccc(Cl)cc2)nn(-c2cnn(C)c2)c1=O,IC50,second compound 0.1 µM,> 3 µM
same,IC50,second compound 0.316 µM,> 3 µM
same,IC50,second compound 1 µM,> 3 µM
same,IC50,second compound 3.16 µM,> 3 µM
same,IC50,second compound 10 µM,2.59 µM
same,"viability, T/C",[21],92.4%
same,"viability, T/C",[22],102%
same,"viability, T/C",[23],92.2%
same,"viability, T/C",[24],95.1%
same,"viability, T/C",[25],82.3%
same,"viability, T/C",[26],59.6%
same,"viability, T/C",[27],93.8%
same,"viability, T/C",[28],89.6%
same,"viability, T/C",[29],101%
same,"viability, T/C",[30],99.7%
same,"viability, T/C",[31],58.9%
same,"viability, T/C",[32],68.4%
same,"viability, T/C",[33],79.7%
same,"viability, T/C",[34],101%
same,"viability, T/C",[35],93.9%
same,"viability, T/C",[36],76.5%
same,"viability, T/C",[37],59.1%
same,"viability, T/C",[38],56.1%
same,"viability, T/C",[39],91.3%
same,"viability, T/C",[40],97%
same,"viability, T/C",[41],84.9%
same,"viability, T/C",[42],99%
same,"viability, T/C",[43],62.7%
same,"viability, T/C",[44],56.6%
same,"viability, T/C",[45],93.1%
same,"viability, T/C",[46],87.2%
same,"viability, T/C",[47],71.8%
same,"viability, T/C",[48],106%
same,"viability, T/C",[49],82%
same,"viability, T/C",[50],44.5%
